Reference: patent US8084649B2, “Herbicides” (Syngenta Crop Protection, inc., priority 2007, dated 2011)

Tests used:
Format in all cases: in vivo
[1] = system: Alopecurus myosuroides (ALOMY); test: Pre-emergence herbicidal activity, glasshouse pot test; conditions: Alopecurus myosuroides, 480 h, rate 500 g/ha, evaluated after 20 days, read-out: Pre-emergence activity, ALOMY (100=total damage to plant; 0=no damage to plant)
Method: (§1) Monocotyledonous and dicotyledonous test plants were sown in sterilised standard soil in pots. After cultivation for one day (pre-emergence) or after 10 days cultivation (post-emergence) under controlled conditions in a glasshouse, the plants were sprayed with an aqueous spray solution derived from the formulation of the technical active ingredient in 0.6 ml acetone and 45 ml formulation solution containing 10.6% Emulsogen EL (Registry number 61791-12-6), 42.2% N-methylpyrrolidone, 42.2% dipropylene glycol monomethyl ether (Registry number 34590-94-8) and 0.2% X-77 (Registry number 11097-66-8). The test plants were then grown in a greenhouse under optimum conditions until, 14 or 15 days later for post-emergence and 20 days for pre-emergence, the test was evaluated (100=total damage to plant; 0=no damage to plant). Alopecurus myosuroides (ALOMY), Avena fatua (AVEFA), Lolium perenne (LOLPE), Setaria faberi (SETFA), Digitaria sanguinalis (DIGSA), Echinochloa crus-galli (ECHCG) Pre-Emergence Activity

Avena fatua (AVEFA) [2] = test: as above; conditions: Avena fatua, 480 h, rate 500 g/ha, evaluated after 20 days, read-out: Pre-emergence activity, AVEFA (100=total damage to plant; 0=no damage to plant)
Method: as §1

[3] = system: Digitaria sanguinalis (DIGSA); test: as above; conditions: Digitaria sanguinalis, 480 h, rate 500 g/ha, evaluated after 20 days, read-out: Pre-emergence activity, DIGSA (100=total damage to plant; 0=no damage to plant)
Method: as §1

[4] = system: Echinochloa crus-galli (ECHCG); test: as above; conditions: Echinochloa crus-galli, 480 h, rate 500 g/ha, evaluated after 20 days, read-out: Pre-emergence activity, ECHCG (100=total damage to plant; 0=no damage to plant)
Method: as §1

Lolium perenne (LOLPE) [5] = test: as above; conditions: Lolium perenne, 480 h, rate 500 g/ha, evaluated after 20 days, read-out: Pre-emergence activity, LOLPE (100=total damage to plant; 0=no damage to plant)
Method: as §1

Setaria faberi (SETFA) [6] = test: as above; conditions: Setaria faberi, 480 h, rate 500 g/ha, evaluated after 20 days, read-out: Pre-emergence activity, SETFA (100=total damage to plant; 0=no damage to plant)
Method: as §1

[7] = system: Alopecurus myosuroides (ALOMY); test: Post-emergence herbicidal activity, glasshouse pot test; conditions: Alopecurus myosuroides, evaluated after 14 or 15 days, read-out: Post-emergence activity, ALOMY (100=total damage to plant; 0=no damage to plant); for pest or weed control at 125 g/ha: rate 125 g/ha; for pest or weed control at 500 g/ha: rate 500 g/ha
Method: as §1, with “Post-Emergence” for “Pre-Emergence”

Avena fatua (AVEFA) [8] = test: as above; conditions: Avena fatua, evaluated after 14 or 15 days, read-out: Post-emergence activity, AVEFA (100=total damage to plant; 0=no damage to plant); for pest or weed control at 125 g/ha: rate 125 g/ha; for pest or weed control at 500 g/ha: rate 500 g/ha
Method: as §1, with “Post-Emergence” for “Pre-Emergence”

[9] = system: Digitaria sanguinalis (DIGSA); test: as above; conditions: Digitaria sanguinalis, evaluated after 14 or 15 days, read-out: Post-emergence activity, DIGSA (100=total damage to plant; 0=no damage to plant); for pest or weed control at 125 g/ha: rate 125 g/ha; for pest or weed control at 500 g/ha: rate 500 g/ha
Method: as §1, with “Post-Emergence” for “Pre-Emergence”

[10] = system: Echinochloa crus-galli (ECHCG); test: as above; conditions: Echinochloa crus-galli, evaluated after 14 or 15 days, read-out: Post-emergence activity, ECHCG (100=total damage to plant; 0=no damage to plant); for pest or weed control at 125 g/ha: rate 125 g/ha; for pest or weed control at 500 g/ha: rate 500 g/ha
Method: as §1, with “Post-Emergence” for “Pre-Emergence”

Lolium perenne (LOLPE) [11] = test: as above; conditions: Lolium perenne, evaluated after 14 or 15 days, read-out: Post-emergence activity, LOLPE (100=total damage to plant; 0=no damage to plant); for pest or weed control at 125 g/ha: rate 125 g/ha; for pest or weed control at 500 g/ha: rate 500 g/ha
Method: as §1, with “Post-Emergence” for “Pre-Emergence”

Setaria faberi (SETFA) [12] = test: as above; conditions: Setaria faberi, evaluated after 14 or 15 days, read-out: Post-emergence activity, SETFA (100=total damage to plant; 0=no damage to plant); for pest or weed control at 125 g/ha: rate 125 g/ha; for pest or weed control at 500 g/ha: rate 500 g/ha
Method: as §1, with “Post-Emergence” for “Pre-Emergence”

Row | SMILES | pest or weed control at 500 g/ha [1] [%] | pest or weed control at 500 g/ha (Avena fatua (AVEFA) [2]) [%] | pest or weed control at 500 g/ha [3] [%] | pest or weed control at 500 g/ha [4] [%] | pest or weed control at 500 g/ha (Lolium perenne (LOLPE) [5]) [%] | pest or weed control at 500 g/ha (Setaria faberi (SETFA) [6]) [%] | pest or weed control at 125 g/ha [7] [%] | pest or weed control at 125 g/ha (Avena fatua (AVEFA) [8]) [%] | pest or weed control at 125 g/ha [9] [%] | pest or weed control at 125 g/ha [10] [%] | pest or weed control at 125 g/ha (Lolium perenne (LOLPE) [11]) [%] | pest or weed control at 125 g/ha (Setaria faberi (SETFA) [12]) [%] | pest or weed control at 500 g/ha [7] [%] | pest or weed control at 500 g/ha (Avena fatua (AVEFA) [8]) [%] | pest or weed control at 500 g/ha [9] [%] | pest or weed control at 500 g/ha [10] [%] | pest or weed control at 500 g/ha (Lolium perenne (LOLPE) [11]) [%] | pest or weed control at 500 g/ha (Setaria faberi (SETFA) [12]) [%]
1 | CCc1cc(C)cc(CC)c1C1=C(OC(C)=O)CC2(CCOCC2)CC1=O [Compound P1] | 100 | 100 | 100 | 100 | 100 | 100 | 50 | 60 | 50 | 50 | 30 | 30 | – | – | – | – | – | –
2 | CCc1cc(C)cc(CC)c1C1=C(OC(=O)C(C)C)CC2(CCOCC2)CC1=O [Compound P3] | 100 | 100 | 100 | 100 | 100 | 100 | 100 | 100 | 90 | 100 | 100 | 90 | – | – | – | – | – | –
3 | CCc1cc(C)cc(CC)c1C1=C(OC(=O)C(C)(C)C)CC2(CCOCC2)CC1=O [Compound P4] | 100 | 100 | 100 | 90 | 100 | 100 | – | – | – | – | – | – | 100 | 90 | 80 | 100 | 100 | 80
4 | CCc1cc(C)cc(CC)c1C1=C(OC(=O)CC(C)C)CC2(CCOCC2)CC1=O [Compound P5] | 100 | 100 | 100 | 100 | 100 | 100 | 100 | 100 | 100 | 100 | 100 | 90 | – | – | – | – | – | –
5 | CCc1cc(C)cc(CC)c1C1=C(OC(=O)Cc2ccc(F)cc2)CC2(CCOCC2)CC1=O [Compound P7] | 40 | 80 | 100 | 70 | 100 | 100 | 80 | 80 | 80 | 80 | 100 | 80 | – | – | – | – | – | –
6 | CCc1cc(C)cc(CC)c1C1=C(OC(=O)COC)CC2(CCOCC2)CC1=O [Compound P8] | 100 | 90 | 100 | 100 | 100 | 100 | 90 | 100 | 100 | 100 | 90 | 90 | – | – | – | – | – | –
7 | CCc1cc(C)cc(CC)c1C1=C(OC(=O)C2CC2)CC2(CCOCC2)CC1=O [Compound P9] | 100 | 100 | 100 | 100 | 100 | 100 | 80 | 100 | 90 | 100 | 90 | 90 | – | – | – | – | – | –
8 | CCc1cc(C)cc(CC)c1C1=C(OC(=O)C(C)(C)C)CC(C(C)(C)SC)CC1=O (stereo not shown) [Compound P52] | 100 | 100 | 100 | 100 | – | 100 | – | – | – | – | – | – | 100 | 90 | 90 | 90 | 100 | 90
9 | CCSC(C)CC1CC(=O)C(c2c(C)cc(C)cc2C)=C(O)C1 (stereo not shown) [Compound T9] | 30 | 30 | 40 | – | 0 | – | – | – | – | – | – | – | 50 | 50 | 90 | 80 | 50 | 80
10 | CCc1cc(C)cc(CC)c1C1=C(O)CC2(CCSCC2)CC1=O [Compound T11] | 80 | – | 90 | 80 | 100 | 90 | – | – | – | – | – | – | 80 | 80 | 90 | 90 | 70 | 90
11 | CCCS(=O)(=O)C(C)CC1CC(=O)C(c2c(CC)cc(C)cc2CC)=C(O)C1 (stereo not shown) [Compound T36] | 100 | 90 | 100 | – | 100 | 100 | – | – | – | – | – | – | 90 | 90 | 70 | 100 | 90 | 50
